Measurements as given in ChEMBL document CHEMBL3758138, “Synthesis and pharmacological evaluation of dehydroabietic acid thiourea derivatives containing bisphosphonate moiety as an inducer of apoptosis” (Eur J Med Chem, 2016).
Activity calls are given as the source filed them. The calls are words filed in the database; no cut-off is given here.

What was measured:
[1] = Cytotoxic activity against human SKOV3 cells assessed as inhibition of cell growth after 48 hrs by MTT assay; type: functional, cell-based; conditions: SK-OV-3, 48 h
[2] = Cytotoxic activity against human Bel7404 cells assessed as inhibition of cell growth after 48 hrs by MTT assay; type: functional, cell-based; conditions: BEL-7404, 48 h
A549 = assay: Cytotoxic activity against human A549 cells assessed as inhibition of cell growth after 48 hrs by MTT assay; type: functional, cell-based; conditions: A549, 48 h
[3] = Cytotoxic activity against human HCT116 cells assessed as inhibition of cell growth after 48 hrs by MTT assay; type: functional, cell-based; conditions: HCT-116, 48 h
NCI-H460 = assay: Cytotoxic activity against human NCI-H460 cells assessed as inhibition of cell growth after 48 hrs by MTT assay; type: functional, cell-based; conditions: NCI-H460, 48 h
[4] = biological target: Cyclin-dependent kinase 2/cyclin E1 (Homo sapiens, UniProt P24941); assay: Inhibition of human recombinant C-terminal His6-tagged full length human Cdk2/human recombinant N-terminal GST-tagged full-length Cyclin E using histone H1 substrate after 40 mins by radiometric filter binding assay; type: protein-complex assay
SK-OV-3 [5] = assay: Induction of apoptosis in human SKOV3 cells assessed as increase in chromatin condensation at 5 uM after 24 hrs by Hoechst 33258 staining based fluorescence microscopic analysis; type: functional, cell-based
SK-OV-3 [6] = assay: Induction of apoptosis in human SKOV3 assessed as loss of membrane integrity at 5 uM after 12 to 24 hrs by AO/EB staining based fluorescence microscopic analysis; type: functional
SK-OV-3 [7] = assay: Induction of ROS generation in human SKOV3 cells at 5 uM after 12 hrs by DCF-DA dye based flow cytometry (reference value: 12.9%); type: functional
SK-OV-3 [8] = assay: Induction of ROS generation in human SKOV3 cells at 5 uM after 24 hrs by DCF-DA dye based flow cytometry (reference value: 12.9%); type: functional
SK-OV-3 [9] = assay: Induction of apoptosis in human SKOV3 cells assessed as depolarization of mitochondria at 5 uM after 12 to 24 hrs by JC-1 dye based fluorescence microscopic analysis; type: functional
SK-OV-3 [10] = assay: Induction of apoptosis in human SKOV3 cells assessed as increase in cytochrome c level in cytosol at 5 uM after 12 to 24 hrs by Western blot analysis; type: functional, cell-based
SK-OV-3 [11] = assay: Induction of apoptosis in human SKOV3 cells assessed as caspase-9 cleavage at 5 uM after 12 to 24 hrs by Western blot analysis; type: functional, cell-based
SK-OV-3 [12] = assay: Induction of apoptosis in human SKOV3 cells assessed as caspase-3 cleavage at 5 uM after 12 to 24 hrs by Western blot analysis; type: functional, cell-based
SK-OV-3 [13] = assay: Induction of apoptosis in human SKOV3 cells assessed as caspase-3 activity by Ac-DEVD-pNA based spectrophotometric analysis; type: functional, cell-based; conditions: TDE = time-dependent effect
SK-OV-3 [14] = assay: Induction of apoptosis in human SKOV3 cells assessed as caspase-9 activity by Ac-LEHD-pNA based spectrophotometric analysis; type: functional, cell-based; conditions: TDE = time-dependent effect
SK-OV-3 [15] = assay: Induction of apoptosis in human SKOV3 cells after 12 hrs by Annexin V-FITC/PI staining based flow cytometry; type: functional, cell-based
SK-OV-3 [16] = assay: Induction of apoptosis in human SKOV3 cells assessed as late apoptotic cells at 3 uM after 12 hrs by Annexin V-FITC/PI staining based flow cytometry (reference value: 1.5%); type: functional
SK-OV-3 [17] = assay: Induction of apoptosis in human SKOV3 cells assessed as late apoptotic cells at 5 uM after 12 hrs by Annexin V-FITC/PI staining based flow cytometry (reference value: 1.5%); type: functional
SK-OV-3 [18] = assay: Induction of apoptosis in human SKOV3 cells assessed as early apoptotic cells at 3 uM after 12 hrs by Annexin V-FITC/PI staining based flow cytometry (reference value: 2.8%); type: functional
SK-OV-3 [19] = assay: Induction of apoptosis in human SKOV3 cells assessed as early apoptotic cells at 5 uM after 12 hrs by Annexin V-FITC/PI staining based flow cytometry (reference value: 2.8%); type: functional
SK-OV-3 [20] = assay: Induction of ROS generation in human SKOV3 cells at 5 uM after 12 hrs by DCF-DA dye based flow cytometry relative to control; type: functional
[21] = Upregulation of Bax protein expression in human SKOV3 cells at 5 uM after 12 to 24 hrs by Western blot analysis; type: functional, cell-based; conditions: SK-OV-3
[22] = Downregulation of Bcl-2 protein expression in human SKOV3 cells after 12 to 24 hrs by Western blot analysis; type: functional, cell-based; conditions: SK-OV-3
SK-OV-3 [23] = assay: Induction of Fas protein expression in human SKOV3 cells after 12 to 24 hrs by Western blot analysis; type: functional, cell-based
SK-OV-3 [24] = assay: Induction of apoptosis in human SKOV3 cells assessed as reduction in caspase-8 level in cytoplasm at 5 uM after 12 to 24 hrs by Western blot analysis; type: functional, cell-based
[25] = Cell cycle arrest in human SKOV3 cells assessed as accumulation at G1 phase at 3 uM after 24 hrs by propidium iodide staining based flow cytometry (reference value: 53.38%); type: functional; conditions: SK-OV-3
[26] = Cell cycle arrest in human SKOV3 cells assessed as accumulation at G2 phase at 3 uM after 24 hrs by propidium iodide staining based flow cytometry (reference value: 8.85%); type: functional; conditions: SK-OV-3
[27] = Cell cycle arrest in human SKOV3 cells assessed as accumulation at S phase at 3 uM after 24 hrs by propidium iodide staining based flow cytometry (reference value: 37.77%); type: functional; conditions: SK-OV-3
[28] = Cell cycle arrest in human SKOV3 cells assessed as accumulation at G1 phase at 5 uM after 24 hrs by propidium iodide staining based flow cytometry (reference value: 53.38%); type: functional; conditions: SK-OV-3
[29] = Cell cycle arrest in human SKOV3 cells assessed as accumulation at G2 phase at 5 uM after 24 hrs by propidium iodide staining based flow cytometry (reference value: 8.85%); type: functional; conditions: SK-OV-3
[30] = Cell cycle arrest in human SKOV3 cells assessed as accumulation at S phase at 5 uM after 24 hrs by propidium iodide staining based flow cytometry (reference value: 37.77%); type: functional; conditions: SK-OV-3

## CCOP(=O)(OCC)C(CNc1cc(Cl)c(NC(=S)NC(=O)[C@]2(C)CCC[C@]3(C)c4ccc(C(C)C)cc4CC[C@@H]23)cc1Cl)P(=O)(OCC)OCC
[1]
  IC50: 22.1 µM
[2]
  IC50: 24.6 µM
A549
  IC50: 16.4 µM
[3]
  IC50: 20.2 µM
NCI-H460
  IC50: 24 µM
[4]
  IC50: > 50 µM

## CCOP(=O)(OCC)C(CNc1ccccc1NC(=S)NC(=O)[C@]1(C)CCC[C@]2(C)c3ccc(C(C)C)cc3CC[C@@H]12)P(=O)(OCC)OCC
[1]
  IC50: 16.5 µM
[2]
  IC50: 12.5 µM
A549
  IC50: 15 µM
[3]
  IC50: 11.4 µM
NCI-H460
  IC50: 13.9 µM
[4]
  IC50: 15.3 µM

## CCOP(=O)(OCC)C(CNc1ccc(NC(=S)NC(=O)[C@]2(C)CCC[C@]3(C)c4ccc(C(C)C)cc4CC[C@@H]23)cc1)P(=O)(OCC)OCC
[1]
  IC50: 16.6 µM
[2]
  IC50: 12.1 µM
A549
  IC50: 15.9 µM
[3]
  IC50: 12.2 µM
NCI-H460
  IC50: 13 µM
[4]
  IC50: 17.8 µM

## CCOP(=O)(OCC)C(CNc1cc(C)c(C)cc1NC(=S)NC(=O)[C@]1(C)CCC[C@]2(C)c3ccc(C(C)C)cc3CC[C@@H]12)P(=O)(OCC)OCC
[1]
  IC50: 19.5 µM
[2]
  IC50: 12.7 µM
A549
  IC50: 13.8 µM
[3]
  IC50: 13.1 µM
NCI-H460
  IC50: 28.3 µM
[4]
  IC50: 2.56 µM

## CCOP(=O)(OCC)C(CNc1ccc(S(=O)(=O)c2ccc(NC(=S)NC(=O)[C@]3(C)CCC[C@]4(C)c5ccc(C(C)C)cc5CC[C@@H]34)cc2)cc1)P(=O)(OCC)OCC
[1]
  IC50: 53.9 µM
[2]
  IC50: 32.2 µM
A549
  IC50: 41.9 µM
[3]
  IC50: 56 µM
NCI-H460
  IC50: 32.7 µM
[4]
  IC50: 0.65 µM

## CCOP(=O)(OCC)C(CNc1ccc(Cc2ccc(NC(=S)NC(=O)[C@]3(C)CCC[C@]4(C)c5ccc(C(C)C)cc5CC[C@@H]34)cc2)cc1)P(=O)(OCC)OCC
[1]
  IC50: 28.9 µM
[2]
  IC50: 35.9 µM
A549
  IC50: 33.6 µM
[3]
  IC50: 25.5 µM
NCI-H460
  IC50: 37.6 µM
[4]
  IC50: 29.5 µM

## CCOP(=O)(OCC)C(CNc1ccc(F)cc1NC(=S)NC(=O)[C@]1(C)CCC[C@]2(C)c3ccc(C(C)C)cc3CC[C@@H]12)P(=O)(OCC)OCC
SK-OV-3 [5]
  Activity: Dose-dependent effect
SK-OV-3 [6]
  Activity: Active
SK-OV-3 [7]
  Activity: 33.6%
SK-OV-3 [8]
  Activity: 49.3%
SK-OV-3 [9]
  Activity: Active
SK-OV-3 [10]
  Activity: Active
SK-OV-3 [11]
  Activity: Active
SK-OV-3 [12]
  Activity: Active
SK-OV-3 [13]
  Activity: tde
SK-OV-3 [14]
  Activity: tde
[1]
  IC50: 1.79 µM
[2]
  IC50: 7.1 µM
A549
  IC50: 6.93 µM
[3]
  IC50: 6.01 µM
NCI-H460
  IC50: 8.17 µM
SK-OV-3 [15]
  Activity: Dose-dependent effect
SK-OV-3 [16]
  Activity: 14.4%
SK-OV-3 [17]
  Activity: 5.7%
SK-OV-3 [18]
  Activity: 14.5%
SK-OV-3 [19]
  Activity: 24.7%
SK-OV-3 [20]
  fold change (FC): 2
[21]
  Activity: Dose-dependent effect
[22]
  Activity: Dose-dependent effect
SK-OV-3 [23]
  Activity: Dose-dependent effect
SK-OV-3 [24]
  Activity: Active
[25]
  Activity: 59.8%
[26]
  Activity: 13.4%
[27]
  Activity: 26.9%
[28]
  Activity: 68.1%
[29]
  Activity: 10.5%
[30]
  Activity: 21.4%
[4]
  IC50: 0.13 µM

## CCOP(=O)(OCC)C(CNc1ccc(Oc2ccc(NC(=S)NC(=O)[C@]3(C)CCC[C@]4(C)c5ccc(C(C)C)cc5CC[C@@H]34)cc2)cc1)P(=O)(OCC)OCC
[1]
  IC50: 58.9 µM
[2]
  IC50: 31.3 µM
A549
  IC50: 20 µM
[3]
  IC50: 44.6 µM
NCI-H460
  IC50: 38.2 µM
[4]
  IC50: 40.9 µM

## CCOP(=O)(OCC)C(CNc1ccc(Sc2ccc(NC(=S)NC(=O)[C@]3(C)CCC[C@]4(C)c5ccc(C(C)C)cc5CC[C@@H]34)cc2)cc1)P(=O)(OCC)OCC
[1]
  IC50: 40.9 µM
[2]
  IC50: 39.2 µM
A549
  IC50: 38.8 µM
[3]
  IC50: 34.1 µM
NCI-H460
  IC50: 40.9 µM
[4]
  IC50: 1.01 µM

## CCOP(=O)(OCC)C(CNc1cccc(NC(=S)NC(=O)[C@]2(C)CCC[C@]3(C)c4ccc(C(C)C)cc4CC[C@@H]23)c1C)P(=O)(OCC)OCC
[1]
  IC50: 17.3 µM
[2]
  IC50: 11.9 µM
A549
  IC50: 15.7 µM
[3]
  IC50: 11.9 µM
NCI-H460
  IC50: 14.2 µM
[4]
  IC50: 5.98 µM

## CCOP(=O)(OCC)C(CNc1cccc(NC(=S)NC(=O)[C@]2(C)CCC[C@]3(C)c4ccc(C(C)C)cc4CC[C@@H]23)c1)P(=O)(OCC)OCC
[1]
  IC50: 16.5 µM
[2]
  IC50: 10.3 µM
A549
  IC50: 15.4 µM
[3]
  IC50: 11.3 µM
NCI-H460
  IC50: 13.7 µM
[4]
  IC50: > 50 µM

## O=c1[nH]cc(F)c(=O)[nH]1 [FLUOROURACIL]
[1]
  IC50: 22.4 µM
[2]
  IC50: 30.2 µM
[3]
  IC50: 24.6 µM
NCI-H460
  IC50: 35.5 µM

## CC(C)c1ccc2c(c1)CC[C@H]1[C@](C)(C(=O)O)CCC[C@]21C [DEHYDROABIETIC ACID]
[1]
  IC50: 65.1 µM
[2]
  IC50: 28.7 µM
A549
  IC50: 55.6 µM
[3]
  IC50: 30.2 µM
NCI-H460
  IC50: 75 µM
[4]
  IC50: 36.3 µM
